Results: article PMC6511062, “Preclinical candidate for the treatment of visceral leishmaniasis that acts through proteasome inhibition” (Proceedings of the National Academy of Sciences of the …, 2019)
Several values for one entry are separate records, joined by “and”; a condition that tells them apart may be missing. Equal entries are not always repeated. Where two headings read alike, the source gives them in different places.

What was measured:
WP2 uvrA (pKM101) = assay: Ames test, strain WP2 uvrA (pKM101)
Experimental: (§1) oxidative metabolism system (S9-mix). The maximum concentration tested and […]
(§2) Compound 7a was tested in a bacterial mutation screening assay (Ames test) with Salmonella typhimurium TA1535, TA1537, TA98, TA100 and Escherichia coli WP2uvrA(pKM101) in the presence and absence of an exogenous mammalian […]
(§3) The bacterial mutation screening assay was a plate incorporation test carried out as previously described15 and according to current methodology. […]

TA1535 = test system: TA1535
Experimental: as §1, §2, §3

TA100 = test system: TA100
Experimental: as §1, §2, §3

Leishmania tarentolae = assay: Potency against L. tarentolae; type: cell-based
Text: The potency of 8 against the nonpathogenic Leishmania spp. […] Apo (3.3 Å) and 8-liganded (2.8 Å) (Fig. 5A) L. tarentolae 20S proteasome structures were obtained using single-particle cryo-EM (SI Appendix, Figs. S11–S15 and Table S9).

mouse lymphoma cells = assay: Mouse lymphoma assay
Experimental: oxidative metabolism system (S9-mix). […]
The maximum […]
concentrations analysed were 410.45 µg/mL (1 mM, the maximum concentration in accordance with current guidelines and 100 µg/mL (limited by toxicity), for the 3 and […]
The mouse lymphoma screen was carried out using test methodology based on established procedures for in vitro gene mutation testing17,18,19,20. […]

Host Cell = assay: Host cell toxicity in the clinical strain panel; type: cell-based
Text: page 46: Supplementary Tables Table S1. […] MHOM/IN/2002/BHU1 0.6 >50 […] Results from one or two (both values shown) biological replicates. Table S2. […] Data represents % of reduction of parasite burden in drug- treated and vehicle control animals calculated from mean LDU data.

TA98 = assay: Ames test, strain TA98
Experimental: as §1, §2, §3

L. donovani (LV9) = assay: Mouse model of VL (in vivo efficacy in female Balb/C mice); parameters: species or system Leishmania donovani
Experimental: Infected mice were dosed at 3, 10, or 25 mg/kg orally twice a day for 10 consecutive days. Two days after the termination of treatment, mice were euthanized, and the parasite burdens in their livers were determined.
Peripheral blood samples were obtained at 5, 15, 30 min, 1, 2, 4, 6 ,8 and 24 h after intravenous administration and 15, 30, 45 min,1, 2, 4, 6, 8 and 24 h after oral administration. Blood was 1/2 diluted with milliQ water and immediately frozen on dry ice until analysis. Quantification was performed by means of LC-MS/MS (API4000), with a lower limit of quantification of 1 ng/mL. […]
Data analysis and calculation of pharmacokinetic parameters was performed using Phoenix, WinNonLin Version 6.3. […]
For both intravenous and oral administration, the systemic exposures were determined by calculating the area under the blood concentration time curve (AUC) from the start of dosing to the last observed quantifiable concentration (AUC0-t) by using the linear up-log down trapezoidal rule. The slope of the terminal elimination phase was estimated by linear regression of the terminal data points (minimum 3 points) from a natural log concentration versus time plot of the data. The half-life (t1/2) of the terminal elimination phase was calculated as t1/2 = 0.693/λ.
7. In vivo efficacy in female Balb/C mice
To establish infection in mice, sodium stibogluconate-sensitive L. donovani (LV9, WHO designation: MHOM/ET/67/HU3) amastigotes were isolated from the spleen of a heavily infected donor hamster (Janvier, France)7. An inoculum containing 1.0 x 10^8 amastigotes/mL in Dulbecco’s modified eagles medium (high glucose) was prepared […]
and female BalbC mice (Harlan, UK) then infected intravenously via the tail vein with a 0.2 mL bolus (equivalent to ~2.0 x 10^7 amastigotes). Infection was left to establish for […]
daily orally as a suspension in 0.5% hydroxypropylmethylcellulose, 0.4% tween 80 and 0.5% benzyl alcohol. With twice daily regimens, the second daily dose was administered approximately 8 h following the first dose. Dose regimens evaluated were:
1. 50 mg/kg twice daily for 5 days
2. 25 mg/kg, 10 mg/kg and 3 mg/kg twice daily for 10 days
3. 25 mg/kg once daily for 10 days
Miltefosine, as the only oral treatment for visceral leishmaniasis, was used as a […]

[1] = with S9-mix, dose level 50 per plate
[2] = with S9-mix, dose level 150 per plate
[3] = with S9-mix, dose level 500 per plate
[4] = with S9-mix, dose level 1500 per plate
[5] = with S9-mix, dose level 2500 per plate
[6] = with S9-mix, dose level 5000 per plate
[7] = without S9-mix, dose level 50 per plate
[8] = without S9-mix, dose level 150 per plate
[9] = without S9-mix, dose level 500 per plate
[10] = without S9-mix, dose level 1500 per plate
[11] = without S9-mix, dose level 2500 per plate
[12] = without S9-mix, dose level 5000 per plate
[13] = 10-d treatment orally twice a day

SMILES: O=C(Nc1ccc(F)c(-c2ccn3c(N4CCOCC4)cnc3n2)c1)N1CCCC1 [Compound 8]
- Mean revertants per plate (WP2 uvrA (pKM101); [1]): 150.5
- Mean revertants per plate (WP2 uvrA (pKM101); [2]): 164.5
- Mean revertants per plate (WP2 uvrA (pKM101); [3]): 143.5
- Mean revertants per plate (WP2 uvrA (pKM101); [4]): 139.0
- Mean revertants per plate (WP2 uvrA (pKM101); [5]): 130.5
- Mean revertants per plate (WP2 uvrA (pKM101); [6]): 133.5
- Mean revertants per plate (WP2 uvrA (pKM101); [7]): 90.0
- Mean revertants per plate (WP2 uvrA (pKM101); [8]): 84.5
- Mean revertants per plate (WP2 uvrA (pKM101); [9]): 80.5
- Mean revertants per plate (WP2 uvrA (pKM101); [10]): 87.5
- Mean revertants per plate (WP2 uvrA (pKM101); [11]): 91.5
- Mean revertants per plate (WP2 uvrA (pKM101); [12]): 82.0
- Mean revertants per plate (TA1535; [1]): 12.0
- Mean revertants per plate (TA1535; [2]): 10.0
- Mean revertants per plate (TA1535; [3]): 17.5
- Mean revertants per plate (TA1535; [4]): 13.5
- Mean revertants per plate (TA1535; [5]): 12.5
- Mean revertants per plate (TA1535; [6]): 9.0
- Mean revertants per plate (TA1535; [7]): 19.0
- Mean revertants per plate (TA1535; [8]): 15.0
- Mean revertants per plate (TA1535; [9]): 21.5
- Mean revertants per plate (TA1535; [10]): 16.0
- Mean revertants per plate (TA1535; [11]): 15.5
- Mean revertants per plate (TA1535; [12]): 18.0
- Mean revertants per plate (TA100; [1]): 123.0
- Mean revertants per plate (TA100; [2]): 96.5
- Mean revertants per plate (TA100; [3]): 106.5
- Mean revertants per plate (TA100; [4]): 118.0
- Mean revertants per plate (TA100; [5]): 101.0
- Mean revertants per plate (TA100; [6]): 122.5
- Mean revertants per plate (TA100; [7]): 99.0
- Mean revertants per plate (TA100; [8]): 97.0
- Mean revertants per plate (TA100; [9]): 86.0
- Mean revertants per plate (TA100; [10]): 109.5
- Mean revertants per plate (TA100; [11]): 91.5
- Mean revertants per plate (TA100; [12]): 94.5
- EC50 (Leishmania tarentolae): 0.04 µM
- MF (Mutation Frequency) (mouse lymphoma cells; 3 hour +S9 treatment, 375 µg/mL): 191.25 ×10-6
- MF (Mutation Frequency) (mouse lymphoma cells; 3 hour +S9 treatment, 410.445 µg/mL): 222.38 ×10-6
- mouse lymphoma screen result (mouse lymphoma cells; 3 hours with S9-mix and 24 hours without S9-mix): negative
- MF (Mutation Frequency) (mouse lymphoma cells; 24 hour -S9 treatment, 40 µg/mL): 75.89 ×10-6
- MF (Mutation Frequency) (mouse lymphoma cells; 24 hour -S9 treatment, 70 µg/mL): 78.36 ×10-6
- MF (Mutation Frequency) (mouse lymphoma cells; 24 hour -S9 treatment, 100 µg/mL): 86.96 ×10-6
- EC50 (Host Cell; strain MHOM/ET/67/HU3 (LV9)): > 50 µM
- EC50 (Host Cell; strain MHOM/IN/80/DD8): > 50 µM
- EC50 (Host Cell; strain MHOM/IN/2002/BHU1): > 50 µM
- EC50 (Host Cell; strain MHOM/MA/67/ITMAP263): > 50 µM
- EC50 (Host Cell; strain SUKA001): > 50 µM
- Mean revertants per plate (TA98; [1]): 23.0
- Mean revertants per plate (TA98; [2]): 25.0
- Mean revertants per plate (TA98; [3]): 30.0
- Mean revertants per plate (TA98; [4]): 24.5
- Mean revertants per plate (TA98; [5]): 25.5
- Mean revertants per plate (TA98; [6]): 25.0
- Mean revertants per plate (TA98; [7]): 22.5
- Mean revertants per plate (TA98; [8]): 19.0
- Mean revertants per plate (TA98; [9]): 14.5
- Mean revertants per plate (TA98; [10]): 19.5
- Mean revertants per plate (TA98; [11]): 16.5
- Mean revertants per plate (TA98; [12]): 18.0
- Reduction in parasite burden (compared to the vehicle control group) (L. donovani (LV9); 3 mg/kg b.i.d. (10 days PO)): 18.4%
- Reduction in parasite burden (compared to the vehicle control group) (L. donovani (LV9); 10 mg/kg b.i.d. (10 days PO)): 56.9%
- Reduction in parasite burden (compared to the vehicle control group) (L. donovani (LV9); 25 mg/kg b.i.d. (10 days PO)): 98.1% and > 95%
- exposure giving >95% parasite burden reduction (L. donovani (LV9); 25 mg/kg twice a day for 10 days): 27 μg/h per mililiter
- Reduction in parasite burden (compared to the vehicle control group) (L. donovani (LV9); 25 mg/kg u.i.d. (10 days PO)): 8.8%
- ED90 (L. donovani (LV9); [13]): 16 mg/kg
- ED99 (L. donovani (LV9); [13]): 30 mg/kg
- ED50 (L. donovani (LV9); Leishmania donovani, po, 240 h, 10-d treatment orally twice a day): 8.9 mg/kg
